Here are results for 17 molecules from PubChem BioAssay (NCI).

Among the test systems are A498 renal; HCC-2998 colon; HCT-116 colon; MALME-3M melanoma; MOLT-4 leukemia; OVCAR-4 ovarian; RXF 393 renal; SK-MEL-5 melanoma; UO-31 renal; SR leukemia.
Common to all, as to test: DTP human tumour cell line panel, 48 h

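Test compounds were applied to cells in 96-well plates for 48 hours at 5 doses. The concentration for 50% growth inhibition is given as GI50. TGI is the concentration that stops growth completely.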

The GI50 is the concentration that inhibits growth by half. One may read the TGI as the concentration giving total growth inhibition. `Cc1cc(O)cc(C)c1/C=C/c1cncc(C(=O)N(C)C)c1`: the GI50 in the test with A498 renal, in the test on HCC-2998 colon, in the test with HCT-116 colon, with MALME-3M melanoma, in the test with MOLT-4 leukemia and in the test with OVCAR-4 ovarian was more than 25 µM in each case. The GI50 in the test with RXF 393 renal, in the test with SK-MEL-5 melanoma and with UO-31 renal was more than 25 µM each time. In addition, the TGI in the test on A498 renal, in the test on HCC-2998 colon, with HCT-116 colon, in the test on MALME-3M melanoma, in the test on MOLT-4 leukemia and with OVCAR-4 ovarian was more than 25 µM throughout. Besides, the TGI in the test on RXF 393 renal, in the test with SK-MEL-5 melanoma and in the test with UO-31 renal was more than 25 µM throughout.

`O=[N+]([O-])/C=C\c1ccc2c(c1)OCO2`: the GI50 was 1.37 µM in the test with A498 renal; 1.42 µM with HCT-116 colon; 14.6 µM in the test with MALME-3M melanoma; 17.6 µM in the test with MOLT-4 leukemia; 11.8 µM with OVCAR-4 ovarian; 1.66 µM in the test on RXF 393 renal. Moreover, the GI50 was 3.68 µM in the test with SK-MEL-5 melanoma, 2.73 µM in the test on SR leukemia and 1.59 µM with UO-31 renal. Besides, the TGI amounted to 8.14 µM with A498 renal; 2.95 µM in the test on HCT-116 colon; 32.9 µM with MALME-3M melanoma; 67.7 µM in the test on MOLT-4 leukemia; 24.2 µM in the test with OVCAR-4 ovarian; 3.1 µM with RXF 393 renal. Moreover, the TGI in the test with SK-MEL-5 melanoma turned out to be 13.9 µM; in the test with SR leukemia, 8.06 µM; in the test on UO-31 renal, 3.2 µM.

Consider `O=C(O)C(Cc1ccc(O)c([N+](=O)[O-])c1)N1C(=O)c2ccccc2C1=O` (configuration not stated), for which the TGI in the test with A498 renal, with HCT-116 colon, with MALME-3M melanoma, in the test on MOLT-4 leukemia, in the test on OVCAR-4 ovarian and in the test on RXF 393 renal was more than 100 µM each time. Moreover, the TGI with SK-MEL-5 melanoma, in the test with SR leukemia and in the test on UO-31 renal was more than 100 µM throughout.

For the molecule `O=C(O)c1nnsc1COCc1ccccc1`, the total growth inhibition concentration (TGI) in the test with A498 renal, with HCT-116 colon, with MALME-3M melanoma, with MOLT-4 leukemia, in the test on OVCAR-4 ovarian and in the test on RXF 393 renal was more than 100 µM throughout. Further, the TGI with SK-MEL-5 melanoma, in the test on SR leukemia and in the test with UO-31 renal was more than 100 µM throughout.

As for `Cn1c(=O)c2c(nc3n2CCC(=O)N3)n(C)c1=O`, the TGI in the test with A498 renal, with MALME-3M melanoma, with MOLT-4 leukemia, with OVCAR-4 ovarian, in the test on RXF 393 renal and in the test on SK-MEL-5 melanoma was more than 100 µM throughout. For the same molecule, the concentration for total growth inhibition (TGI) in the test with SR leukemia and in the test on UO-31 renal was more than 100 µM each time.

As to `CCCc1ccc(N=Cc2cc(OC)c(OC)c(OC)c2)cc1`, the TGI in the test with A498 renal, in the test on HCT-116 colon, with MALME-3M melanoma, with MOLT-4 leukemia, in the test on OVCAR-4 ovarian and in the test with RXF 393 renal was more than 100 µM throughout. In addition, the total growth inhibition concentration (TGI) in the test with SK-MEL-5 melanoma, in the test on SR leukemia and in the test on UO-31 renal was more than 100 µM throughout.

For the molecule `CCc1cccc(C)c1NC(=O)CC1Sc2ccccc2NC1=O` (configuration not stated), the TGI with A498 renal is 72.8 µM; in the test on HCC-2998 colon, 81.2 µM; in the test with HCT-116 colon, more than 100 µM; in the test with MALME-3M melanoma, more than 100 µM; in the test with MOLT-4 leukemia, more than 100 µM; in the test with OVCAR-4 ovarian it was more than 100 µM. For the same molecule, the TGI in the test on RXF 393 renal was 73.7 µM; in the test with SK-MEL-5 melanoma, more than 100 µM; in the test on UO-31 renal, more than 100 µM.

Take `Nc1ncnc2c1ncn2C1OC(C(=O)O)C(O)C1O` (configuration not stated): the TGI in the test on A498 renal, with HCT-116 colon, in the test on MALME-3M melanoma, with MOLT-4 leukemia, in the test with OVCAR-4 ovarian and with RXF 393 renal was more than 100 µM throughout. The TGI in the test with SK-MEL-5 melanoma, in the test with SR leukemia and in the test on UO-31 renal was more than 100 µM throughout.

In the case of `O=C(/C=C/c1ccc([N+](=O)[O-])o1)NNC(=O)c1cc2ccccc2cc1O`, the GI50 in the test on A498 renal is 2.11 µM; in the test on HCC-2998 colon, 1.32 µM; in the test with HCT-116 colon it was 0.557 µM; with MALME-3M melanoma, 1.34 µM; in the test on MOLT-4 leukemia it was 0.97 µM; in the test with OVCAR-4 ovarian, 1.26 µM. In addition, the GI50 is 0.236 µM in the test on RXF 393 renal, 0.656 µM with SK-MEL-5 melanoma and 1.2 µM with UO-31 renal. For the same molecule, the TGI in the test on A498 renal is 6.17 µM; with HCC-2998 colon, 3.21 µM; in the test with HCT-116 colon, 1.72 µM; in the test on MALME-3M melanoma, 4.91 µM; with MOLT-4 leukemia, more than 100 µM; with OVCAR-4 ovarian, more than 100 µM. Besides, the figures for the TGI in the test with RXF 393 renal, in the test with SK-MEL-5 melanoma and in the test on UO-31 renal were 0.94 µM, 2.04 µM and 3.78 µM, respectively.

Turning to `COc1cc(C(C#N)NNC(=O)c2ccccc2O)ccc1O` (configuration not stated), the TGI in the test on HCT-116 colon was more than 100 µM; with MALME-3M melanoma, more than 100 µM; in the test with MOLT-4 leukemia it was more than 100 µM; with OVCAR-4 ovarian, more than 100 µM; in the test with RXF 393 renal it was 6.3 µM; in the test on SK-MEL-5 melanoma, more than 100 µM. The concentration for total growth inhibition (TGI) in the test on SR leukemia is more than 100 µM; with UO-31 renal, 3.28 µM.

Take `OC1CCC(C2C3CCCCC3C3CCCCC3C2C2CCC(O)CC2)CC1` (configuration not stated): the TGI with A498 renal is 32.2 µM; in the test with HCT-116 colon, more than 100 µM; in the test with MALME-3M melanoma, 41.7 µM; in the test with MOLT-4 leukemia it was more than 100 µM; in the test on OVCAR-4 ovarian, 16 µM; in the test with RXF 393 renal, 7.06 µM. The figures for the TGI in the test with SK-MEL-5 melanoma, with SR leukemia and in the test on UO-31 renal were 23.5 µM, more than 100 µM and 36.5 µM, respectively.

Take `N#CC1C(N)=NNC1c1ccc(-c2ccc(-c3nc4ccccc4o3)cc2)o1` (configuration not stated): the GI50 with HCT-116 colon was 5.91 µM; in the test on MOLT-4 leukemia it was more than 100 µM; in the test on OVCAR-4 ovarian it was 90.8 µM; with SK-MEL-5 melanoma it was 21.4 µM; in the test on SR leukemia, more than 100 µM; in the test with UO-31 renal, 30.1 µM. The TGI is more than 100 µM in the test on HCT-116 colon; more than 100 µM in the test with MOLT-4 leukemia; more than 100 µM in the test on OVCAR-4 ovarian; 60.5 µM with SK-MEL-5 melanoma; more than 100 µM with SR leukemia; more than 100 µM in the test with UO-31 renal.

As for `O=C1c2cccc3cc([N+](=O)[O-])cc(c23)C(=O)N1CCCN1CCN(CCCN2C(=O)c3cccc4cc([N+](=O)[O-])cc(c34)C2=O)CC1`, the TGI is 3.87 µM in the test with A498 renal; 54.3 µM in the test with HCC-2998 colon; 1.34 µM in the test on HCT-116 colon; 25.3 µM with MALME-3M melanoma; more than 100 µM in the test on MOLT-4 leukemia; 5.96 µM in the test on OVCAR-4 ovarian. Besides, the results for the TGI with RXF 393 renal, in the test with SK-MEL-5 melanoma and with UO-31 renal were 1.76 µM, 2.37 µM and 1.01 µM, respectively.

In the case of `C=C1C(=O)O[C@H]2[C@H]1CC/C(COC(=O)c1ccc(C(=O)O)s1)=C\CC[C@@]1(C)O[C@@H]21`, the GI50 in the test on A498 renal is 7.5 µM; with HCC-2998 colon, 3.47 µM; with HCT-116 colon it was 0.715 µM; with MALME-3M melanoma, 2.44 µM; with MOLT-4 leukemia, 2.38 µM; with OVCAR-4 ovarian, 3.18 µM. Further, the GI50 was 1.97 µM in the test on RXF 393 renal, 3.64 µM in the test on SK-MEL-5 melanoma and 1.4 µM in the test on UO-31 renal. In addition, the TGI is 20.3 µM in the test on A498 renal; 11.5 µM in the test with HCC-2998 colon; 2.03 µM with HCT-116 colon; 4.25 µM in the test with MALME-3M melanoma; 7.2 µM with MOLT-4 leukemia; 10.5 µM with OVCAR-4 ovarian. The TGI in the test with RXF 393 renal came out at 3.92 µM; with SK-MEL-5 melanoma it was 13.3 µM; in the test with UO-31 renal, 3.04 µM.

Take `CCN(CC)CC(C)Nc1ccc(C)c2sc3ccccc3c(=O)c12` (configuration not stated): the GI50 in the test on A498 renal is 1.92 µM; in the test on HCC-2998 colon, 3.19 µM; with HCT-116 colon, 3.07 µM; with MALME-3M melanoma it was 2.45 µM; with MOLT-4 leukemia, 1.68 µM; in the test on OVCAR-4 ovarian, 7.61 µM. Further, the figures for the GI50 with SK-MEL-5 melanoma and in the test on UO-31 renal were 1.48 µM and 1.77 µM, respectively. Besides, the TGI in the test on A498 renal is 8.07 µM; with HCC-2998 colon it was 15 µM; in the test with HCT-116 colon it was 12.3 µM; in the test with MALME-3M melanoma it was 8.29 µM; with MOLT-4 leukemia it was 5.93 µM; with OVCAR-4 ovarian, 20.5 µM. For the same molecule, the TGI in the test on RXF 393 renal was found to be 1.97 µM; in the test on SK-MEL-5 melanoma, 2.85 µM; in the test with UO-31 renal, 7.69 µM.

For the molecule `O=C1C=C(c2cc(Br)c(O)c(Br)c2)/C(=C/c2cc(Br)c(O)c(Br)c2)O1`, the GI50 with A498 renal is 20.1 µM; in the test on HCC-2998 colon, 56.1 µM; in the test with HCT-116 colon, 14.8 µM; in the test with MALME-3M melanoma, 41.5 µM; in the test with MOLT-4 leukemia, 18.4 µM; with OVCAR-4 ovarian it was 50.4 µM. Moreover, the GI50 is 1.82 µM in the test on RXF 393 renal, 29 µM with SK-MEL-5 melanoma and 19.2 µM in the test on UO-31 renal. The TGI was 57.2 µM with A498 renal; more than 75 µM with HCC-2998 colon; 43.8 µM with HCT-116 colon; more than 75 µM in the test with MALME-3M melanoma; 51.9 µM with MOLT-4 leukemia; more than 75 µM in the test on OVCAR-4 ovarian. Moreover, the TGI in the test on RXF 393 renal was 23.6 µM; in the test with SK-MEL-5 melanoma it was more than 75 µM; with UO-31 renal, more than 75 µM.

With `CCOC(=O)/C=C(/CN1C(=O)c2ccccc2C1=O)c1ccccc1`, the TGI in the test on A498 renal, in the test with HCC-2998 colon, in the test with HCT-116 colon, in the test with MALME-3M melanoma, in the test on MOLT-4 leukemia and in the test with OVCAR-4 ovarian was more than 100 µM in each case. The TGI in the test on RXF 393 renal, with SK-MEL-5 melanoma and with UO-31 renal was more than 100 µM throughout.
